Where a SMILES comes first, the peptide text is derived from it. [ ]: non-standard residue; d: D form. ξ: configuration not given here. Arg(NO2) = N=C(NCCC[C@H](N)C(=O)O)N[N+](=O)[O-]; αMePhe(2,6-F2) = C[C@](N)(Cc1c(F)cccc1F)C(=O)O; ξαMePhe(2,6-F2) = CC(N)(Cc1c(F)cccc1F)C(=O)O; ξαMePhe(2-F) = CC(N)(Cc1ccccc1F)C(=O)O; Cit = NC(=O)NCCC[C@H](N)C(=O)O; Nle = CCCC[C@H](N)C(=O)O; Ac5c = NC1(C(=O)O)CCCC1; Aib = CC(C)(N)C(=O)O
Assays:
Format in all cases: in vitro ADME
[1] = Stability of peptides in human plasma; conditions: human, plasma; for metabolised at 24 h, 2 μM: pH 7.8
Summary of the method: (§1)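 Peptides at 2 μM final incubated 0–24 h at 37 °C (50 mM triethanolamine-HCl, pH 7.8) in each matrix, matrix level set to degrade ~50% PTH(1-34) in 1 h; TFA-quenched, C18 HPLC at 206 nm with ESI-MS peak identification; percent degradation from peak areas at each time point.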

[2] = Stability of peptides in simulated gastric fluid (pH 1.5; HCl, NaCl and Pepsin); conditions: pH 1.5; for % degradation of peptides in 24 h when incubated with simulated gastric fluid: 2 μM; for half-life / half-life (t1/2) in simulated gastric fluid: simulated gi fluid
[3] = Stability of peptides in simulated intestinal fluid (pH 7.5); conditions: pH 7.5; for half-life / half-life (t1/2) in simulated intestinal fluid: simulated gi fluid; for % degradation of peptides in 24 h when incubated with simulated intestinal fluid: 2 μM
Summary of the method: as §1

[4] = Stability of peptides in human liver microsomes; conditions: human, microsomes; for % degradation of peptides in 24 h when incubated with liver microsomes: 2 μM, pH 7.8
Summary of the method: as §1

SMILES | half-life [1] [min] | metabolised at 24 h, 2 μM [1] [%] | % degradation of peptides in 24 h when incubated with simulated gastric fluid [2] [%] | half-life [2] [min] | half-life [3] [min] | % degradation of peptides in 24 h when incubated with simulated intestinal fluid [3] [%] | half-life (t1/2) in liver microsomes [4] | % degradation of peptides in 24 h when incubated with liver microsomes [4] [%] | half-life [4] [min] | half-life (t1/2) in simulated gastric fluid [2] | half-life (t1/2) in simulated intestinal fluid [3] | half-life (t1/2) in human plasma [1]
CCCC[C@H](NC(=O)C(C)(Cc1c(F)cccc1F)NC(=O)[C@H](CCC(N)=O)NC(=O)[C@@H](NC(=O)[C@H](CCC(=O)O)NC(=O)C(C)(C)NC(=O)[C@@H](NC(=O)C1(N)CCCC1)C(C)C)[C@@H](C)CC)C(=O)N[C@@H](Cc1c[nH]cn1)C(=O)N[C@@H](CCC(N)=O)C(=O)NC(C)(Cc1c(F)cccc1F)C(=O)NC(C)(C)C(=O)N[C@@H](CCCNC(N)=O)C(=O)NC(C)(Cc1ccccc1F)C(N)=O (stereo partly shown) [Seq. ID. 480] (H-[Ac5c]V[Aib]EIQ[ξαMePhe(2,6-F2)][Nle]HQ[ξαMePhe(2,6-F2)][Aib][Cit][ξαMePhe(2-F)]-NH2) | > 1440 | 0 | 00 | > 1440 | > 1440 | 00 | (5) h | 32 | – | – | – | –
CCCC[C@H](NC(=O)C(C)(Cc1ccccc1F)NC(=O)[C@H](CCC(N)=O)NC(=O)[C@@H](NC(=O)[C@H](CCC(=O)O)NC(=O)C(C)(C)NC(=O)[C@@H](NC(=O)C(C)(C)N)C(C)C)[C@@H](C)CC)C(=O)N[C@@H](Cc1c[nH]cn1)C(=O)N[C@@H](CCC(N)=O)C(=O)NC(C)(Cc1c(F)cccc1F)C(=O)NC(C)(C)C(=O)NC(C)(C)C(=O)NC(C)(Cc1ccccc1F)C(N)=O (stereo partly shown) [Seq. ID. 490] (H-[Aib]V[Aib]EIQ[ξαMePhe(2-F)][Nle]HQ[ξαMePhe(2,6-F2)][Aib][Aib][ξαMePhe(2-F)]-NH2) | > 1440 | 0 | 43 | 240 | > 1440 | 00 | – | 84 | 120 | – | – | –
CCCC[C@H](NC(=O)C(C)(Cc1c(F)cccc1F)NC(=O)[C@H](CCC(N)=O)NC(=O)[C@@H](NC(=O)[C@H](CCC(=O)O)NC(=O)C(C)(C)NC(=O)[C@@H](NC(=O)C(C)(C)N)C(C)C)[C@@H](C)CC)C(=O)N[C@@H](Cc1c[nH]cn1)C(=O)N[C@@H](CCC(N)=O)C(=O)NC(C)(Cc1c(F)cccc1F)C(=O)NC(C)(C)C(=O)NC(C)(Cc1c(F)cccc1F)C(=O)NC(C)(Cc1ccccc1F)C(N)=O (stereo partly shown) [Seq. ID. 510] (H-[Aib]V[Aib]EIQ[ξαMePhe(2,6-F2)][Nle]HQ[ξαMePhe(2,6-F2)][Aib][ξαMePhe(2,6-F2)][ξαMePhe(2-F)]-NH2) | > 1440 | 0 | 41 | 240 | > 1440 | 00 | – | 80 | 120 | – | – | –
CCCC[C@H](NC(=O)C(C)(Cc1c(F)cccc1F)NC(=O)[C@H](CCC(N)=O)NC(=O)[C@@H](NC(=O)[C@H](CCC(=O)O)NC(=O)C(C)(C)NC(=O)[C@@H](NC(=O)C(C)(C)N)C(C)C)[C@@H](C)CC)C(=O)N[C@@H](Cc1c[nH]cn1)C(=O)N[C@@H](CCC(N)=O)C(=O)NC(C)(Cc1c(F)cccc1F)C(=O)N[C@@H](C)C(=O)N[C@@H](CCCNC(=N)N[N+](=O)[O-])C(=O)NC(C)(Cc1ccccc1F)C(N)=O (stereo partly shown) [Seq. ID. 525] (H-[Aib]V[Aib]EIQ[ξαMePhe(2,6-F2)][Nle]HQ[ξαMePhe(2,6-F2)]A[Arg(NO2)][ξαMePhe(2-F)]-NH2) | 480 | 78 | 12 | – | – | 55 | – | 79 | 60 | (8) h | (6) h | –
CCCC[C@H](NC(=O)[C@](C)(Cc1c(F)cccc1F)NC(=O)[C@H](CCC(N)=O)NC(=O)[C@@H](NC(=O)[C@H](CCC(=O)O)NC(=O)C(C)(C)NC(=O)[C@@H](NC(=O)C(C)(C)N)C(C)C)[C@@H](C)CC)C(=O)N[C@@H](Cc1c[nH]cn1)C(=O)N[C@@H](CCC(N)=O)C(=O)NC(C)(C)C(=O)NC(C)(C)C(=O)N[C@@H](CCCNC(N)=O)C(=O)N[C@@](C)(Cc1c(F)cccc1F)C(N)=O [Seq. ID. 550] (H-[Aib]V[Aib]EIQ[αMePhe(2,6-F2)][Nle]HQ[Aib][Aib][Cit][αMePhe(2,6-F2)]-NH2) | 480 | 80 | 13 | – | – | 50 | – | 82 | 60 | (8) h | (6) h | –
CCCC[C@H](NC(=O)C(C)(Cc1c(F)cccc1F)NC(=O)[C@H](CCC(N)=O)NC(=O)[C@@H](NC(=O)[C@H](CCC(=O)O)NC(=O)C(C)(C)NC(=O)[C@@H](NC(=O)C1(N)CCCC1)C(C)C)[C@@H](C)CC)C(=O)N[C@@H](Cc1c[nH]cn1)C(=O)N[C@@H](CCC(N)=O)C(=O)NC(C)(C)C(=O)NC(C)(C)C(=O)NC(C)(C)C(=O)NC(C)(Cc1ccccc1F)C(N)=O (stereo partly shown) [Seq. ID. 560] (H-[Ac5c]V[Aib]EIQ[ξαMePhe(2,6-F2)][Nle]HQ[Aib][Aib][Aib][ξαMePhe(2-F)]-NH2) | 480 | 78 | 14 | – | – | 43 | – | 80 | 60 | (8) h | (6) h | –
CCCC[C@H](NC(=O)C(C)(Cc1ccccc1F)NC(=O)[C@H](CCC(N)=O)NC(=O)[C@@H](NC(=O)[C@H](CCC(=O)O)NC(=O)C(C)(C)NC(=O)[C@@H](NC(=O)C(C)(C)N)C(C)C)[C@@H](C)CC)C(=O)N[C@@H](Cc1c[nH]cn1)C(=O)N[C@@H](CCC(N)=O)C(=O)NC(C)(C)C(=O)NC(C)(C)C(=O)NC(C)(Cc1c(F)cccc1F)C(=O)NC(C)(Cc1ccccc1F)C(N)=O (stereo partly shown) [Seq. ID. 570] (H-[Aib]V[Aib]EIQ[ξαMePhe(2-F)][Nle]HQ[Aib][Aib][ξαMePhe(2,6-F2)][ξαMePhe(2-F)]-NH2) | – | 71 | 100 | 30 | 30 | 100 | – | 100 | 30 | – | – | (9) h
CCCC[C@H](NC(=O)C(C)(Cc1ccccc1F)NC(=O)[C@H](CCC(N)=O)NC(=O)[C@@H](NC(=O)[C@H](CCC(=O)O)NC(=O)C(C)(C)NC(=O)[C@@H](NC(=O)C1(N)CCCC1)C(C)C)[C@@H](C)CC)C(=O)N[C@@H](Cc1c[nH]cn1)C(=O)N[C@@H](CCC(N)=O)C(=O)NC(C)(C)C(=O)NC(C)(C)C(=O)NC(C)(Cc1c(F)cccc1F)C(=O)NC(C)(Cc1c(F)cccc1F)C(N)=O (stereo partly shown) [Seq. ID. 580] (H-[Ac5c]V[Aib]EIQ[ξαMePhe(2-F)][Nle]HQ[Aib][Aib][ξαMePhe(2,6-F2)][ξαMePhe(2,6-F2)]-NH2) | 480 | 75 | 12 | – | – | 46 | – | 83 | 60 | (8) h | (6) h | –
